Measurements published in patent US11787799B2 (priority 2015, dated 2023).

Legend:
[1] = system: Enterovirus D68/US/KY/14-18953; experiment: Antiviral assay, Enterovirus D68 strain US/KY/14-18953 in RD cells; type: cell-based
Enterovirus D68/Fermon = experiment: Antiviral assay, Enterovirus D68 strain Fermon in RD cells; type: cell-based
[2] = system: Enterovirus D68/US/Mo/14-18949; experiment: Antiviral assay, Enterovirus D68 strain US/Mo/14-18949 in RD cells; type: cell-based
Coxsackievirus B1 = experiment: microbe, parasite or virus in culture; type: cell-based; details: read-out: EC50 CVB1
Coxsackievirus B5 = experiment: microbe, parasite or virus in culture; type: cell-based; details: read-out: EC50 CVB5
Poliovirus 1 = experiment: microbe, parasite or virus in culture; type: cell-based; details: read-out: EC50 PV1
Coxsackievirus B4 = experiment: microbe, parasite or virus in culture; type: cell-based; details: read-out: EC50 CVB4
Poliovirus 3 = experiment: microbe, parasite or virus in culture; type: cell-based; details: read-out: EC50 PV3
Coxsackievirus B2 = experiment: microbe, parasite or virus in culture; type: cell-based; details: read-out: EC50 CVB2
Coxsackievirus B3-H3 = experiment: microbe, parasite or virus in culture; type: cell-based; details: read-out: EC50 CVB3-H3
Echovirus 6 = experiment: microbe, parasite or virus in culture; type: cell-based; details: read-out: EC50 ECHO06
Enterovirus 71 = experiment: microbe, parasite or virus in culture; type: cell-based; details: read-out: EC50 EV71
Coxsackievirus A9 = experiment: microbe, parasite or virus in culture; type: cell-based; details: read-out: EC50 COX A9

SMILES	EC50 [1] [nM]	EC50 (Enterovirus D68/Fermon) [nM]	EC50 [2] [nM]	CC50 (RD cells) [nM]	EC50 (Coxsackievirus B1) [nM]	EC50 (Coxsackievirus B5) [nM]	EC50 (Poliovirus 1) [nM]	EC50 (Coxsackievirus B4) [nM]	EC50 (Poliovirus 3) [nM]	EC50 (Coxsackievirus B2) [nM]	EC50 (Coxsackievirus B3-H3) [nM]	EC50 (Echovirus 6) [nM]	EC50 (Enterovirus 71) [nM]	EC50 (Coxsackievirus A9) [nM]	CC50 (HeLa-RW cells) [nM]	CC50 (LLC cells) [nM]
CC(C)n1ncc2c(C(=O)Nc3ccccc3F)cc(-c3nccs3)nc21 [JX-007]	1200	800 ± 280	660 ± 100	> 200000	–	–	–	–	–	–	–	–	–	–	–	–
CC(C)(C)n1ncc2c(C(=O)Nc3ccccc3F)cc(-c3cccs3)nc21 [JX-013]	1800 ± 440	1330 ± 230	1070 ± 230	> 200000	–	–	–	–	–	–	–	–	–	–	–	–
CC(C)n1ncc2c(C(=O)Nc3cc(F)cc(F)c3)cc(-c3cccs3)nc21 [JX-016]	–	–	–	–	> 10000	> 10000	> 10000	> 10000	> 10000	> 10000	> 10000	–	–	–	–	–
CC(C)n1ncc2c(C(=O)Nc3cc(F)ccc3F)cc(-c3cccs3)nc21 [JX-018]	–	–	–	–	–	–	> 25000	–	> 25000	–	2700 ± 400	2600 ± 300	3500	2400	> 200000	100000
CC(C)n1ncc2c(C(=O)Nc3cccc(F)c3F)cc(-c3cccs3)nc21 [JX-019]	–	–	–	–	–	–	> 25000	–	> 25000	–	2700 ± 400	2000 ± 600	3000	–	> 200000	75000
CC(C)n1ncc2c(C(=O)Nc3c(F)cc(F)cc3F)cc(-c3cccs3)nc21 [JX-020]	–	–	–	–	6000	2300	> 25000	3100	> 25000	–	1800 ± 700	2400	3000	2400	> 200000	> 200000
CC(C)n1ncc2c(C(=O)Nc3ccccc3S(N)(=O)=O)cc(-c3cccs3)nc21 [JX-033]	–	–	–	–	3900 ± 1100	2700 ± 600	> 25000	3100 ± 100	> 25000	3900 ± 1100	2600 ± 400	2400	2500 ± 700	2400	10000	25000
CC(C)n1ncc2c(C(=O)Nc3ccc(F)cc3)cc(C3CC3)nc21 [JX-038]	–	–	–	–	4700	–	> 10000	–	> 10000	4700	4700	3900	3200 ± 100	3000	10000	12500
CC(C)n1ncc2c(C(=O)Nc3ccncc3)cc(-c3cccs3)nc21 [JX-042]	–	–	–	–	600	600	> 10000	600	> 10000	600	600	200	400	500	6000	6250
CC(C)n1ncc2c(C(=O)Nc3cccc(S(N)(=O)=O)c3)cc(C3CC3)nc21 [JX-055]	730 ± 120	700 ± 200	400 ± 200	> 200000	–	–	–	–	–	–	–	–	–	–	–	–
CC(C)n1ncc2c(C(=O)Nc3cccnc3)cc(-c3ccsc3)nc21 [JX-060]	–	–	–	–	600	600	> 10000	600	> 10000	600	600	–	2400	–	18000	37000
CC(C)n1ncc2c(C(=N)Nc3cccnc3)cc(-c3cccs3)nc21 [JX-065]	6300	6300	4700 ± 1600	75000	–	–	–	–	–	–	–	–	–	–	–	–
CC(C)n1ncc2c(C(=N)Nc3ccc(F)cc3)cc(-c3cccs3)nc21 [JX-067]	2270 ± 230	1600	1270 ± 120	100000	–	–	–	–	–	–	–	–	–	–	18000	–
CC(C)n1ncc2c(C(=O)Nc3ccc(F)cn3)cc(-c3cccs3)nc21 [JX-075]	< 400	< 400	< 400	25000	–	–	> 10000	–	> 10000	–	700 ± 100	–	1200	–	37500	> 200000
